# Source: ChEMBL document CHEMBL1201862, “PubChem BioAssay data set” (2004)
#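 Method: 48-hour compound exposure of cells in 96-well plates, five concentrations, linear interpolation of endpoints. Abbreviation: GI50, concentration required for 50% inhibition of growth.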 The source made the active and inactive calls. Cut-off read from the data, not from the text of the source: active = GI50 up to about 1.1 µM and inactive = higher.
# Legend:
# Assay in all cases: growth of human tumour cells (NCI), 48 h
# 786-0 = system: 786-0
# COLO 205 = system: COLO 205
# HCT-116 = system: HCT-116
# HOP-62 = system: HOP-62
# HT-29 = system: HT-29
# IGROV-1 = system: IGROV-1
# KM12 = system: KM12
# LOX IMVI = system: LOX IMVI
# M14 = system: M14
# MDA-N = system: MDA-N
# NCI-H460 = system: NCI-H460
# NCI/ADR-RES = system: NCI/ADR-RES
# OVCAR-5 = system: OVCAR-5
# RPMI-8226 = system: RPMI-8226
# SF-268 = system: SF-268
# SF-539 = system: SF-539
# SN12C = system: SN12C
# T47D = system: T47D
# TK-10 = system: TK-10
# SR = system: SR
Structure (SMILES),GI50 (786-0),GI50 (COLO 205),GI50 (HCT-116),GI50 (HOP-62),GI50 (HT-29),GI50 (IGROV-1),GI50 (KM12),GI50 (LOX IMVI),GI50 (M14),GI50 (MDA-N),GI50 (NCI-H460),GI50 (NCI/ADR-RES),GI50 (OVCAR-5),GI50 (RPMI-8226),GI50 (SF-268),GI50 (SF-539),GI50 (SN12C),GI50 (T47D),GI50 (TK-10),GI50 (SR)
O=C(O)C1CC(c2ccccc2)=NN1c1ccccc1 (configuration not stated),56.9 µM (inactive),50.9 µM (inactive),66.7 µM (inactive),> 100 µM (inactive),34.2 µM (inactive),> 100 µM (inactive),42.9 µM (inactive),41.9 µM (inactive),75 µM (inactive),99.5 µM (inactive),54.7 µM (inactive),48.5 µM (inactive),> 100 µM (inactive),40.3 µM (inactive),81.1 µM (inactive),93.5 µM (inactive),> 100 µM (inactive),52 µM (inactive),64 µM (inactive),–
CNC(=O)/C(C#N)=C(\N)N1CCCC1,> 100 µM (inactive),> 100 µM (inactive),> 100 µM (inactive),> 100 µM (inactive),> 100 µM (inactive),> 100 µM (inactive),> 100 µM (inactive),–,–,> 100 µM (inactive),> 100 µM (inactive),> 100 µM (inactive),> 100 µM (inactive),> 100 µM (inactive),> 100 µM (inactive),> 100 µM (inactive),> 100 µM (inactive),> 100 µM (inactive),> 100 µM (inactive),> 100 µM (inactive)
COc1cc2cc(C(=O)N3CC(CCl)c4ccc(O)cc43)[nH]c2c(OC)c1OC (configuration not stated),0.00012 µM (active),0.0227 µM (active),< 0.0001 µM (active),0.00363 µM (active),0.00104 µM (active),0.0198 µM (active),0.00507 µM (active),0.00184 µM (active),0.00163 µM (active),< 0.01 µM (active),–,0.00162 µM (active),0.129 µM (active),0.000556 µM (active),0.00596 µM (active),0.00171 µM (active),0.00441 µM (active),0.0356 µM (active),0.0408 µM (active),0.0034 µM (active)
COC(=O)[C@@H](Cc1ccccc1)N1O[C@]12CCCC[C@@H]2NC(=O)OC(C)(C)C (some centres not stated),26.1 µM (inactive),26.7 µM (inactive),38.7 µM (inactive),18.6 µM (inactive),18.3 µM (inactive),14.7 µM (inactive),48 µM (inactive),–,19.1 µM (inactive),20.4 µM (inactive),25.5 µM (inactive),23.1 µM (inactive),25.1 µM (inactive),44.5 µM (inactive),18 µM (inactive),19.2 µM (inactive),32.3 µM (inactive),24.7 µM (inactive),25.1 µM (inactive),29.3 µM (inactive)
c1ccc(C(=NNc2nc3ccccc3o2)c2ccccn2)nc1,< 0.0254 µM (active),< 0.01 µM (active),< 0.0117 µM (active),0.0408 µM (active),< 0.0164 µM (active),–,0.148 µM (active),0.122 µM (active),0.0281 µM (active),0.191 µM (active),–,0.0245 µM (active),< 0.0175 µM (active),0.0327 µM (active),0.0841 µM (active),0.0931 µM (active),0.118 µM (active),< 0.01 µM (active),0.0574 µM (active),0.0388 µM (active)
OC[C@H]1C[C@@H]2Cc3ccccc3N2N1,> 100 µM (inactive),> 100 µM (inactive),> 100 µM (inactive),> 100 µM (inactive),> 100 µM (inactive),> 100 µM (inactive),> 100 µM (inactive),> 100 µM (inactive),> 100 µM (inactive),> 100 µM (inactive),> 100 µM (inactive),> 100 µM (inactive),> 100 µM (inactive),–,> 100 µM (inactive),> 100 µM (inactive),> 100 µM (inactive),> 100 µM (inactive),> 100 µM (inactive),> 100 µM (inactive)
Cc1c(S(=O)(=O)O)ccc(/N=N/c2c(O)c(C(=O)O)cc3ccccc23)c1Cl,> 89.3 µM (inactive),> 100 µM (inactive),> 100 µM (inactive),> 100 µM (inactive),> 100 µM (inactive),> 100 µM (inactive),> 100 µM (inactive),> 100 µM (inactive),> 100 µM (inactive),> 100 µM (inactive),> 100 µM (inactive),> 100 µM (inactive),> 100 µM (inactive),> 100 µM (inactive),> 100 µM (inactive),–,> 100 µM (inactive),> 100 µM (inactive),> 100 µM (inactive),> 50.2 µM (inactive)
Cc1ccc2c(c1)C/C(=C\c1ccccc1C(=O)O)C2=O,> 100 µM (inactive),35.6 µM (inactive),> 100 µM (inactive),> 100 µM (inactive),40.6 µM (inactive),> 100 µM (inactive),> 100 µM (inactive),> 100 µM (inactive),–,> 100 µM (inactive),> 100 µM (inactive),> 100 µM (inactive),> 100 µM (inactive),43.7 µM (inactive),> 100 µM (inactive),50.1 µM (inactive),> 100 µM (inactive),> 100 µM (inactive),> 100 µM (inactive),46.3 µM (inactive)
COC(=O)[C@H](Cc1ccccc1)NC(=O)N(CCNC(=O)OC(C)(C)C)c1ccccc1,> 100 µM (inactive),> 100 µM (inactive),> 100 µM (inactive),> 100 µM (inactive),> 100 µM (inactive),> 100 µM (inactive),> 100 µM (inactive),> 100 µM (inactive),> 100 µM (inactive),> 100 µM (inactive),> 100 µM (inactive),> 100 µM (inactive),> 100 µM (inactive),> 100 µM (inactive),> 100 µM (inactive),–,> 100 µM (inactive),51.4 µM (inactive),–,> 100 µM (inactive)
N#Cc1c(N)nc2[nH]nc(N)c2c1-c1ccc(Cl)cc1,7.94 µM (inactive),1.48 µM (inactive),5.52 µM (inactive),6.75 µM (inactive),7.62 µM (inactive),1.84 µM (inactive),4.12 µM (inactive),2.83 µM (inactive),3.33 µM (inactive),4.22 µM (inactive),3.15 µM (inactive),7.66 µM (inactive),11.9 µM (inactive),–,5.11 µM (inactive),6.38 µM (inactive),3.32 µM (inactive),1.47 µM (inactive),2.1 µM (inactive),> 22.6 µM (inactive)
C[C@@H]1O[C@@H](O[C@H]2CC[C@]3(C=O)[C@H]4CC[C@]5(C)[C@@H](C6=CC(=O)OC6)CC[C@]5(O)[C@@H]4CC[C@]3(O)C2)[C@H](O)[C@H](O)[C@H]1O [CONVALLATOXIN],8.79e-06 µM (active),9.35e-05 µM (active),< 0.01 µM (active),1.05e-05 µM (active),4.78e-05 µM (active),< 0.01 µM (active),8.39e-05 µM (active),2.93e-05 µM (active),0.0146 µM (active),4.3e-05 µM (active),8.47e-06 µM (active),1.26e-05 µM (active),4.24e-05 µM (active),4.45e-05 µM (active),1.21e-05 µM (active),1.83e-05 µM (active),8.69e-06 µM (active),5.62e-05 µM (active),2.88e-05 µM (active),–
CCOC(=O)CO/N=C\C1=CC(=O)C2CC1C2(C)C (configuration not stated),> 100 µM (inactive),> 100 µM (inactive),> 100 µM (inactive),–,> 100 µM (inactive),> 100 µM (inactive),> 100 µM (inactive),> 100 µM (inactive),> 100 µM (inactive),> 100 µM (inactive),–,> 100 µM (inactive),> 100 µM (inactive),> 100 µM (inactive),> 100 µM (inactive),> 100 µM (inactive),> 100 µM (inactive),> 100 µM (inactive),> 100 µM (inactive),–
CCOP(=O)(OCC)C(N)Cc1ccc(OC)c(OC)c1 (configuration not stated),> 100 µM (inactive),> 100 µM (inactive),> 100 µM (inactive),–,> 100 µM (inactive),> 100 µM (inactive),> 100 µM (inactive),–,> 100 µM (inactive),> 100 µM (inactive),> 100 µM (inactive),> 100 µM (inactive),> 100 µM (inactive),> 100 µM (inactive),> 100 µM (inactive),> 100 µM (inactive),> 100 µM (inactive),> 100 µM (inactive),> 100 µM (inactive),> 100 µM (inactive)
O=C1/C(=C/c2ccccc2)Oc2cc(O)ccc21,> 100 µM (inactive),> 100 µM (inactive),> 100 µM (inactive),> 100 µM (inactive),> 100 µM (inactive),> 100 µM (inactive),> 100 µM (inactive),–,> 100 µM (inactive),> 100 µM (inactive),> 100 µM (inactive),> 100 µM (inactive),–,> 100 µM (inactive),> 100 µM (inactive),> 100 µM (inactive),> 100 µM (inactive),> 100 µM (inactive),> 100 µM (inactive),> 100 µM (inactive)
OCC12C3C4C5C3C1C5C42 (configuration not stated),> 100 µM (inactive),> 100 µM (inactive),> 100 µM (inactive),> 100 µM (inactive),> 100 µM (inactive),47.3 µM (inactive),–,> 100 µM (inactive),> 100 µM (inactive),> 100 µM (inactive),> 100 µM (inactive),> 100 µM (inactive),> 100 µM (inactive),–,> 100 µM (inactive),> 100 µM (inactive),> 100 µM (inactive),> 100 µM (inactive),> 100 µM (inactive),> 100 µM (inactive)
